Earlier results, collected in US9993551B2, “Combination therapies of EGFR inhibitors” (NOVARTIS AG, priority 2014, dated 2018).

Assays:
[1] = test system: EGFR mutant (L858R, ex19del and T790M) cancer models; settings: in vitro and in vivo
[2] = test system: EGFR activating and acquired resistance mutants (L858R, ex19del and T790M); settings: targeted covalent irreversible EGFR inhibitor
[3] = target: WT EGFR (Homo sapiens, UniProt P00533)
WT EGFR, sequence (P00533 25-1210): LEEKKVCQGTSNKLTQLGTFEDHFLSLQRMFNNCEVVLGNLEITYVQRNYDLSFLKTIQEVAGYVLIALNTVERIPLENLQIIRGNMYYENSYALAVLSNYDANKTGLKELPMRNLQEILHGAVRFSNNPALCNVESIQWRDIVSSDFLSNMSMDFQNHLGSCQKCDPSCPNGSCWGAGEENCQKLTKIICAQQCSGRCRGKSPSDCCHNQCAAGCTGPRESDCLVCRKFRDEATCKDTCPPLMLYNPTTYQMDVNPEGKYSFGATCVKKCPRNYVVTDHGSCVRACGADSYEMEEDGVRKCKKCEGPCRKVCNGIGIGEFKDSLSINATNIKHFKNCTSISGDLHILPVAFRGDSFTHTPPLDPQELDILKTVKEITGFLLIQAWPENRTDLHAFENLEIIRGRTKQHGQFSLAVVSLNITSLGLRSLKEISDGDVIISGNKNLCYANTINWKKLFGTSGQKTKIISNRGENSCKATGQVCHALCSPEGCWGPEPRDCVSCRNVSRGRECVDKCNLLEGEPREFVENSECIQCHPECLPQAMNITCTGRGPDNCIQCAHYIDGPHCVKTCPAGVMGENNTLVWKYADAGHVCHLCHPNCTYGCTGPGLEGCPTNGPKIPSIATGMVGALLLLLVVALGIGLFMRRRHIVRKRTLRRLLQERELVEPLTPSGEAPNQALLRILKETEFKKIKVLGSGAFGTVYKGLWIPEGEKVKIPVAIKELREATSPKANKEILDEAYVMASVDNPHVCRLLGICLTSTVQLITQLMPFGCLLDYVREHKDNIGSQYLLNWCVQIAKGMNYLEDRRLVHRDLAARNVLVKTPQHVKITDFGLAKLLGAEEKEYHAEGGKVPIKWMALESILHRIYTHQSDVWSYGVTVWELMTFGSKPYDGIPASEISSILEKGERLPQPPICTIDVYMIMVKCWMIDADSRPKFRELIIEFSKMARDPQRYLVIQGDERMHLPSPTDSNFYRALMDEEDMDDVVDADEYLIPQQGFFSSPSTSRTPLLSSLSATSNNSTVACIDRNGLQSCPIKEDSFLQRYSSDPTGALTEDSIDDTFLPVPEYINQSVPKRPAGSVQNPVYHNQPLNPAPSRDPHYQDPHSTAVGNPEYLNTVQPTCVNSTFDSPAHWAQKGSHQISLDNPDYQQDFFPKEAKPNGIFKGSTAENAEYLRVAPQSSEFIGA

effect on WT EGFR [3]: sparing WT EGFR
SMILES: Cc1cc(C(=O)Nc2nc3cccc(Cl)c3n2[C@@H]2CCCCN(C(=O)/C=C/CN(C)C)C2)ccn1 [EGF816, (R,E)-N-(7-chloro-1-(1-(4-(dimethylamino)but-2-enoyl)azepan-3-yl)-1H-benzo[d]imidazol-2-yl)-2-methylisonicotinamide]
efficacy in EGFR mutant cancer models [1]: significant efficacy
inhibition of mutant EGFR [2]: selectively inhibits
